Measurements from patent US20040033899A1, “5[(pyrazol-4-yl)carbonyl]benzazolone as herbicide” (priority 2000, published 2004).

How the values were obtained:
AMARE = assay: greenhouse post-emergence herbicidal test; format: in vivo, redroot pigweed
Text: (§1) The seeds of the test plants were sown separately for each species. For the post-emergence treatment, the test plants were first grown to a plant height of from 3 to 15 cm, depending on the plant habit, and only then treated with the active compounds which had been suspended or emulsified in water. To this end, the test plants were either sown directly and grown in the same containers, or they were first grown separately as seedlings and transplanted into the test containers a few days prior to treatment. The rate of application for the post-emergence treatment was 31.3, 62.5, 125 and/or 250 g of a.s. (active substance) /ha. Depending on the species, the plants were kept at from 10 to 25° C., or 20-35° C., respectively. The test period extended over 2 to 4 weeks. During this time, the plants were tended, and their response to the individual treatments was evaluated. Evaluation was carried out using a scale of from 0 to 100. 100 means no emergence of the plants, or complete destruction of at least the aerial parts, and 0 means no damage, or normal course of growth. A damage of at least 95% corresponds to very good herbicidal action. The plants used in the greenhouse experiments were of the following species: [table]

BRAPL = assay: greenhouse post-emergence herbicidal test; format: in vivo, marmelade grass
Text: as §1

PAPRH = assay: greenhouse post-emergence herbicidal test; format: in vivo, cornpoppy; conditions: 31.3 or 62.5 g/ha (a.s.)
Text: as §1

STEME = assay: greenhouse post-emergence herbicidal test; format: in vivo, chickweed; conditions: 31.3 or 62.5 g/ha (a.s.)
Text: as §1

THLAR = assay: greenhouse post-emergence herbicidal test; format: in vivo, pennycress; conditions: 31.3 or 62.5 g/ha (a.s.)
Text: as §1

BIDPI = assay: greenhouse post-emergence herbicidal test; format: in vivo, hairy beggarticks; conditions: 125 or 250 g/ha (a.s.)
Text: as §1

POLPE = assay: greenhouse post-emergence herbicidal test; format: in vivo, ladysthumb
Text: as §1

PHBPU = assay: greenhouse post-emergence herbicidal test; format: in vivo, morningglory, common; conditions: 125 or 250 g/ha (a.s.)
Text: as §1

CHEAL = assay: greenhouse post-emergence herbicidal test; format: in vivo, lambsquarters (goosefoot); conditions: 125 or 250 g/ha (a.s.)
Text: as §1

ECHCG = assay: greenhouse post-emergence herbicidal test; format: in vivo, barnyardgrass; conditions: 125 or 250 g/ha (a.s.)
Text: as §1

SETFA = assay: greenhouse post-emergence herbicidal test; format: in vivo, giant foxtail; conditions: 125 or 250 g/ha (a.s.)
Text: as §1

SMILES: CCn1c(=O)sc2ccc(C(=O)c3cnn(C(C)(C)C)c3O)c(C)c21 [Example I-1d.1131]
- herbicidal action against AMARE (AMARE; 125 or 250 g/ha (a.s.)): very good herbicidal action (A damage of at least 95% corresponds to very good herbicidal action)
- herbicidal action against BRAPL (BRAPL; 125 or 250 g/ha (a.s.)): very good herbicidal action (A damage of at least 95% corresponds to very good herbicidal action)

SMILES: CCn1ncc(C(=O)c2ccc3sc(=O)n(C)c3c2C)c1O [Example I-1b.1129, 3,4-dimethyl-5-(5′-hydroxy-1′-ethylpyrazol-4-yl)carbonylbenzothiazol-2-one]
- herbicidal action against PARPH (PAPRH): very good herbicidal action (A damage of at least 95% corresponds to very good herbicidal action)
- herbicidal action against STEME (STEME): very good herbicidal action (A damage of at least 95% corresponds to very good herbicidal action)
- herbicidal action against THLAR (THLAR): very good herbicidal action (A damage of at least 95% corresponds to very good herbicidal action)

SMILES: CCn1ncc(C(=O)c2ccc3sc(=O)n(CC)c3c2C)c1O [Example I-1b.1131]
- herbicidal action against AMARE (AMARE; 125 or 250 g/ha (a.s.)): very good herbicidal action (A damage of at least 95% corresponds to very good herbicidal action)
- herbicidal action against BRAPL (BRAPL; 125 or 250 g/ha (a.s.)): very good herbicidal action (A damage of at least 95% corresponds to very good herbicidal action)

SMILES: CCn1c(=O)sc2ccc(C(=O)c3cnn(C(C)C)c3O)c(C)c21 [Example I-1c.1131]
- herbicidal action against AMARE (AMARE; 125 or 250 g/ha (a.s.)): very good herbicidal action (A damage of at least 95% corresponds to very good herbicidal action)
- herbicidal action against BRAPL (BRAPL; 125 or 250 g/ha (a.s.)): very good herbicidal action (A damage of at least 95% corresponds to very good herbicidal action)

SMILES: Cc1c(C(=O)c2cnn(C)c2O)ccc2sc(=O)n(C)c12 [Example I-1a.1129, 3,4-dimethyl-5-(5′-hydroxy-1′-methyl-pyrazol-4-yl)carbonyl benzothiazol-2-one]
- herbicidal action against STEME (STEME): very good herbicidal action (A damage of at least 95% corresponds to very good herbicidal action)
- herbicidal action against THLAR (THLAR): very good herbicidal action (A damage of at least 95% corresponds to very good herbicidal action)

SMILES: CCCn1c(=O)sc2ccc(C(=O)c3cnn(C)c3O)c(C)c21 [Example 15]
- melting point: 135 to 137 °C

SMILES: Cc1nn(C)c(O)c1C(=O)c1ccc2sc(=O)n(Cc3ccccc3)c2c1C [Example 18]
- melting point: 153 to 156 °C

SMILES: Cc1c(C(=O)c2cnn(C)c2O)ccc2oc(=O)n(CC(C)C)c12 [Example 26]
- melting point: 150 to 151 °C

SMILES: Cc1c(C(=O)c2cnn(C(C)C)c2O)ccc2sc(=O)n(CC3OCCO3)c12 [Example 23]
- melting point: 54 to 58 °C

SMILES: COc1cccc(Cn2c(=O)sc3ccc(C(=O)c4cnn(C)c4O)c(C)c32)c1 [Example 45]
- melting point: 79 to 89 °C

SMILES: CCCn1c(=O)oc2ccc(C(=O)c3cnn(C(C)C)c3O)c(C)c21 [Example 27]
- melting point: 104 to 105 °C

SMILES: CCCn1c(=O)oc2ccc(C(=O)c3cnn(C)c3O)c(C)c21 [Example I-1a.4]
- herbicidal action against AMARE (AMARE; 125 or 62.5 g/ha (a.s.)): very good herbicidal action (A damage of at least 95% corresponds to very good herbicidal action)
- herbicidal action against BRAPL (BRAPL; 125 or 62.5 g/ha (a.s.)): very good herbicidal action (A damage of at least 95% corresponds to very good herbicidal action)

SMILES: C=CCn1c(=O)sc2ccc(C(=O)c3cnn(C)c3O)c(C)c21 [Example 4]
- melting point: 155 to 158 °C

SMILES: CC#CCn1c(=O)sc2ccc(C(=O)c3cnn(C(C)C)c3O)c(C)c21 [Example 21]
- melting point: 54 to 60 °C

SMILES: CCn1ncc(C(=O)c2ccc3sc(=O)n(CC)c3c2C)c1OCc1ccccc1 [Example I-1h.1131]
- herbicidal action against AMARE (AMARE; 125 or 250 g/ha (a.s.)): very good herbicidal action (A damage of at least 95% corresponds to very good herbicidal action)
- herbicidal action against BRAPL (BRAPL; 125 or 250 g/ha (a.s.)): very good herbicidal action (A damage of at least 95% corresponds to very good herbicidal action)

SMILES: Cc1c(C(=O)c2cnn(C)c2O)ccc2sc(=O)n(Cc3ccccc3)c12 [Example 16]
- melting point: 65 to 71 °C

SMILES: COc1cccc(Cn2c(=O)sc3ccc(C(=O)c4cnn(C(C)C)c4O)c(C)c32)c1 [Example 44]
- melting point: 71 to 74 °C

SMILES: CCCCn1c(=O)oc2ccc(C(=O)c3cnn(C)c3O)c(C)c21 [Example I-1a.6]
- herbicidal action against BIDPI (BIDPI): very good herbicidal action (A damage of at least 95% corresponds to very good herbicidal action)
- herbicidal action against POLPE (POLPE; 125 or 250 g/ha (a.s.)): very good herbicidal action (A damage of at least 95% corresponds to very good herbicidal action)

SMILES: CCn1c(=O)oc2ccc(C(=O)c3cnn(C)c3O)c(C)c21 [Example 8]
- melting point: 156 to 157 °C

SMILES: CCn1c(=O)sc2ccc(C(=O)c3cnn(C)c3O)c(C)c21 [Example I-1a.1131]
- herbicidal action against AMARE (AMARE; 125 or 250 g/ha (a.s.)): very good herbicidal action (A damage of at least 95% corresponds to very good herbicidal action)
- herbicidal action against BRAPL (BRAPL; 125 or 250 g/ha (a.s.)): very good herbicidal action (A damage of at least 95% corresponds to very good herbicidal action)

SMILES: Cc1c(C(=O)c2cnn(C(C)C)c2OCc2ccccc2)ccc2sc(=O)n(CC3OCCO3)c12 [Example 24]
- melting point: 133 to 134 °C

SMILES: CCCn1c(=O)sc2ccc(C(=O)c3c(C)nn(C)c3O)c(C)c21 [Example 28]
- melting point: 56 to 61 °C

SMILES: Cc1c(C(=O)c2cnn(C)c2O)ccc2oc(=O)n(C)c12 [Example 6]
- melting point: 200 to 203 °C

SMILES: C=CCn1c(=O)oc2ccc(C(=O)c3cnn(C)c3O)c(C)c21 [Example 7]
- melting point: 127 to 129 °C

SMILES: CC#CCn1c(=O)sc2ccc(C(=O)c3cnn(C)c3O)c(C)c21 [Example 20]
- melting point: 140 to 147 °C

SMILES: CCn1c(=O)sc2ccc(C(=O)c3cnn(C(C)(C)C)c3OCc3ccccc3)c(C)c21 [Example I-1y.1131]
- herbicidal action against BRAPL (BRAPL; 125 or 250 g/ha (a.s.)): very good herbicidal action (A damage of at least 95% corresponds to very good herbicidal action)
- herbicidal action against PHBPU (PHBPU): very good herbicidal action (A damage of at least 95% corresponds to very good herbicidal action)

SMILES: Cc1c(C(=O)c2cnn(C(C)C)c2O)ccc2sc(=O)n(C)c12 [Example I-1c.1129, 3,4-dimethyl-5-(5′-hydroxy-1′-isopropylpyrazol-4-yl)carbonylbenzothiazol-2-one]
- herbicidal action against AMARE (AMARE; 31.3 or 62.5 g/ha (a.s.)): very good herbicidal action (A damage of at least 95% corresponds to very good herbicidal action)
- herbicidal action against POLPE (POLPE; 31.3 or 62.5 g/ha (a.s.)): very good herbicidal action (A damage of at least 95% corresponds to very good herbicidal action)

SMILES: CCn1c(=O)sc2ccc(C(=O)c3cnn(C)c3OCc3ccccc3)c(C)c21 [Example I-1g.1131]
- herbicidal action against AMARE (AMARE; 125 or 250 g/ha (a.s.)): very good-herbicidal action
- herbicidal action against BRAPL (BRAPL; 125 or 250 g/ha (a.s.)): very good-herbicidal action
- herbicidal action against CHEAL (CHEAL): very good-herbicidal action
- herbicidal action against ECHCG (ECHCG): very good-herbicidal action
- herbicidal action against SETFA (SETFA): very good-herbicidal action

SMILES: Cc1c(C(=O)c2cnn(C)c2OCc2ccccc2)ccc2sc(=O)n(Cc3ccccc3)c12 [Example 35]
- melting point: 150 to 151 °C

SMILES: Cc1c(C(=O)c2cnn(C(C)C)c2O)ccc2sc(=O)n(Cc3ccccc3)c12 [Example 17]
- melting point: 142 to 144 °C

SMILES: CCCCCn1c(=O)sc2ccc(C(=O)c3cnn(C(C)C)c3O)c(C)c21 [Example 39]
- melting point: 105 to 107 °C
